Where two headings read alike, the source gives them in different places.
How the values were obtained:
[1] = tested on: IL-6 secretion in the human mast cell line HMC 1.1; assay: IL-6 production inhibition assay (IL-33 stimulated HMC 1.1 cells, IL-6 ELISA); type: cell-based; conditions: 24 hours
Procedure, shortened: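 HMC 1.1 cells stimulated with 200 nM recombinant human IL-33 were exposed 24 hours to compound at 10 μM, 25 μM, 30 μM or 50 μM, among other levels. Secreted IL-6 was quantified by ELISA in triplicate against a standard curve and expressed as % of vehicle.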

[2] = Cellular viability, WST-8 assay, without or with human liver microsomes; type: cell-based
[3] = tested on: Human liver cancer cell line HepG2 cells; assay: as above; type: cell-based; conditions: at 100 μM
IL33 and ST2 binding [4] = molecular target: T1, IL33 and ST2 binding (Homo sapiens, UniProt O95760);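 note: plate ELISA with coated Flag-tagged human IL-33 and His-tagged human ST2, bound ST2 detected by anti-His HRP and TMB absorbance at 450 nm, 2 h compound incubation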
T1 sequence (O95760 112-270 limits assumed): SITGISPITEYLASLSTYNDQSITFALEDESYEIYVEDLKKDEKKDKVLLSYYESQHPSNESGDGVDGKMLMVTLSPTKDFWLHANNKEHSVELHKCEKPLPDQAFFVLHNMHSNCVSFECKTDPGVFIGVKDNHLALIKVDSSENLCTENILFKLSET
Method: (§1) 100 nM of Flag tagged IL-33 human recombinant protein was prepared in 1× coating buffer (Biolegend) and placed in a 96 well microplate (Coming) using a Multichannel pipette (Gilson) and coated for at least 12 hours at 4° C.
(§2) After washing three times with PBST (1×PBS (Welgene), 1% Tween 20 (sigma)), it was reacted with 1% BSA (Bovogen) blocking buffer for 1 hour at room temperature.
(§3) Samples containing 200 nM of His-tagged ST2 human recombinant protein and 60 μM or 200 μM Example synthetic compounds were prepared, added in equal volumes, and reacted for at least 2 hours at room temperature.
(§4) After washing three times with PBST (1×PBS (Welgene), 1% Tween 20 (sigma)), anti-His HRP (BioLegend) antibody was diluted 5000:1 and reacted for at least 1 hour at room temperature.
(§5) After washing three times with PBST (1×PBS (Welgene), 1% Tween 20 (sigma)), TMB substrate solution (Thermo) was added and reacted for more than 5 minutes. The reaction was stopped by adding 1 N HCl (Samchun) and the absorbance value was obtained at 450 nm after orbital shaking for 5 s with a Microplate reader (Tecan, Spark®).
(§6) The results derived from the program linked to the microplate reader were analyzed using an Excel program. IL33-ST2 binding rate (binding %) was calculated by averaging the three values obtained in triplicate, subtracting the positive control value, and converting the negative control value to 100%. The inhibition % value of each compound was obtained by subtracting the IL33-ST2 binding % from 100%, and the error range of triplicate was also obtained and reflected in the inhibition graph of the compound.

IL33 and ST2 binding [5] = molecular target: T1, IL33 and ST2 binding; assay: biochemical
Method: as §1, §2, §3, §4, §5, §6

CC(=O)N1CCN(CCNC(=O)c2nc(-c3ccc(C(F)(F)F)cc3)oc2-c2ccccc2[N+](=O)[O-])CC1 [Compound 284, N-(2-(4-acetylpiperazin-1-yl)ethyl)-5-(2-nitrophenyl)-2-(4-(trifluoromethyl)phenyl)oxazole-4-carboxamide]
inhibition at 1 µM ([1]; 1 μM compound, read-out: Inhibition of hIL-6 production (%) 1 μM): 27%
inhibition at 10 µM ([1]; 10 μM compound, read-out: Inhibition of hIL-6 production (%) 10 μM): 39%
CC50 at 24 h ([2]; HepG2, with human liver microsomes, read-out: CC50 (μM) (+) microsome): 46.5 µM
CC50 at 24 h ([2]; HepG2 cells, HepG2, without human liver microsomes, read-out: CC50 (μM) (−) microsome): 48.6 µM
Cellular viability (%) (+) microsome ([3]; HepG2, with human liver microsomes): 49 at %
Cellular viability (%) (−) microsome ([3]; HepG2, without human liver microsomes): 40 at %
inhibition (IL33 and ST2 binding [4]; 30 µM): 101%
inhibition (IL33 and ST2 binding [4]; 100 µM): 104%
IC50 (IL33 and ST2 binding [5]): 3.15 µM
